From patent US20240383898A1, “PYRIDO RING COMPOUND, PREPARATION METHOD THEREFOR, INTERMEDIATE, COMPOSITION, AND APPLICATION” (YIYOU BIOTECH (SHANGHAI) CO., LTD, priority 2021, published 2024)

What was measured:
JAK2 = target: T1, JAK2 (Homo sapiens, UniProt O60674); test: In vitro activity test of JAK2 kinase (Caliper EZ Reader conversion assay); format: biochemical; settings: enzyme activity, 10 concentrations from 1000 nM, 3-fold dilution
T1 construct: purchased Carna 08-045
Method: (§1) In Vitro Activity Test of JAK1 and JAK2 Kinases
(§2) • Centrifuge (manufacturer: Eppendorf, model: 5430) • ELISA Instrument (Manufacturer: Perkin Elmer, Model: Caliper EZ Reader 1I) • Echo 550 (Manufacturer: Labcyte, Model: Echo 550)
(§3) (1) Prepare 1 Kinase buffer.
(§4) (2) Compound concentration gradient preparation: The test compound was tested at 1000 nM, 3-fold dilution, 10 concentrations, two-well assay, and configured to a 100-fold final concentration in a 384-well plate. 250 nl of the test compound was then transferred to the 384 reaction plate using Echo550. 250 nl of 100% DMSO was added to each of the negative and positive control wells.
(§5) (3) Prepare 2.5 times the final concentration of kinase solution with 1×Kinase buffer.
(§6) (4) Add 10 μL of 2.5 times the final concentration of kinase solution to the compound wells and 10 μL of 1×Kinase buffer to the negative control wells.
(§7) (5) Centrifuge at 1000 rpm for 30 seconds, mix well with shaking, and incubate at room temperature for 10 minutes.
(§8) (6) Prepare a 25/15-fold final concentration of mixture of ATP and Kinase substrate with 1×Kinase buffer.
(§9) (7) Add 15 μL of a mixture of 25/15 times the final concentration of ATP and substrate to start the reaction.
(§10) (8) Centrifuge the 384-well plate at 1000 rpm for 30 seconds, mix well with shaking, and incubate at room temperature for an appropriate amount of time.
(§11) (9) Stop the kinase reaction by adding 30 μL of termination solution, centrifuge at 1000 rpm for 30 seconds, and mix well with shaking.
(§12) (10) Read the conversion rate with Caliper EZ Reader.
(§13) where: Conversion %_sample is the conversion rate reading of the sample-, Conversion %_min: the average value of the negative control wells, representing the conversion reading of the wells without enzyme activity: Conversion %-max: the average value of the positive control wells, representing the conversion reading of the wells without compound inhibition.
(§14) The log value of concentration was used as the X-axis and the percentage inhibition as the Y-axis, and the function of the analytical software GraphPad Prism 5; log(inhibitor) vs. response -Variable slope, was used to lit dose-effect curves to obtain the IC50) values of each compound on enzyme activity.
(§15) The formula is Y=Bottom+(Top-Bottom)/(1+10^((LogIC50-X)*HillSlope))
(§16) The 1C50 data are specified in Table 1.

JAK1 = target: T2, JAK1 (Homo sapiens, UniProt P23458); test: In vitro activity test of JAK1 kinase (Caliper EZ Reader conversion assay); format: biochemical; settings: enzyme activity, 10 concentrations from 1000 nM, 3-fold dilution
T2 construct: purchased Carna 08-114
T2 sequence (P23458 whole entry, species assumed): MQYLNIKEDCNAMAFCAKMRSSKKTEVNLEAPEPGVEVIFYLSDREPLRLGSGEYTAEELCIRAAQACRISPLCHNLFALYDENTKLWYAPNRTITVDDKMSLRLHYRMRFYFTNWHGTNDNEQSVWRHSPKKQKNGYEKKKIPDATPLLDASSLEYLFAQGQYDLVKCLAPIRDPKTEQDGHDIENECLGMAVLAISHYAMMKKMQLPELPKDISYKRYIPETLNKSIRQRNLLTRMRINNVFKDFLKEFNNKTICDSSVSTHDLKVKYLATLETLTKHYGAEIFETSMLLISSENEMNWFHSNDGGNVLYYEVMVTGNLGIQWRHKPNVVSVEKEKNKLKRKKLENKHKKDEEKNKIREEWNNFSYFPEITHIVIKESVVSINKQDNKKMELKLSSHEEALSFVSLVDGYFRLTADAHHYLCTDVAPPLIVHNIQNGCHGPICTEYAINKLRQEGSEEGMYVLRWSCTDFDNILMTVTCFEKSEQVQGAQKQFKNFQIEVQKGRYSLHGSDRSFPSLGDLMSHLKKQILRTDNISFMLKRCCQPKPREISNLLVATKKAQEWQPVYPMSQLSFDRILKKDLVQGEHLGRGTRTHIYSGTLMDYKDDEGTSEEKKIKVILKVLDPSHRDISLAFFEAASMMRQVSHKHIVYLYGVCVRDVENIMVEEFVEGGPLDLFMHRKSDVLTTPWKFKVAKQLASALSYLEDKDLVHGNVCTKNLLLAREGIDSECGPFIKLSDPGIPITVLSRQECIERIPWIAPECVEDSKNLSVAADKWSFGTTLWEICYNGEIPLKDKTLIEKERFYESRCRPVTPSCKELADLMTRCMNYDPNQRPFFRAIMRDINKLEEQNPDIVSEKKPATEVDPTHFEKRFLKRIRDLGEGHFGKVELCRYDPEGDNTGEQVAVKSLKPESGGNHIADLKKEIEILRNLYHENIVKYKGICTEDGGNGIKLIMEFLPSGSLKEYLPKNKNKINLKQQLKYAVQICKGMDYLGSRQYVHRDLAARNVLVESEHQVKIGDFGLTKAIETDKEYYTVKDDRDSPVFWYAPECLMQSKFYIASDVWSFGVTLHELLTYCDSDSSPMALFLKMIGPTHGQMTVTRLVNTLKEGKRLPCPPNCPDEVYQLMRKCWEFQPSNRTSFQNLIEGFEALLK
Method: as §1, §2, §3, §4, §5, §6, §7, §8, §9, §10, §11, §12, §13, §14, §15, §16

T1 sequence (O60674 whole entry, species assumed): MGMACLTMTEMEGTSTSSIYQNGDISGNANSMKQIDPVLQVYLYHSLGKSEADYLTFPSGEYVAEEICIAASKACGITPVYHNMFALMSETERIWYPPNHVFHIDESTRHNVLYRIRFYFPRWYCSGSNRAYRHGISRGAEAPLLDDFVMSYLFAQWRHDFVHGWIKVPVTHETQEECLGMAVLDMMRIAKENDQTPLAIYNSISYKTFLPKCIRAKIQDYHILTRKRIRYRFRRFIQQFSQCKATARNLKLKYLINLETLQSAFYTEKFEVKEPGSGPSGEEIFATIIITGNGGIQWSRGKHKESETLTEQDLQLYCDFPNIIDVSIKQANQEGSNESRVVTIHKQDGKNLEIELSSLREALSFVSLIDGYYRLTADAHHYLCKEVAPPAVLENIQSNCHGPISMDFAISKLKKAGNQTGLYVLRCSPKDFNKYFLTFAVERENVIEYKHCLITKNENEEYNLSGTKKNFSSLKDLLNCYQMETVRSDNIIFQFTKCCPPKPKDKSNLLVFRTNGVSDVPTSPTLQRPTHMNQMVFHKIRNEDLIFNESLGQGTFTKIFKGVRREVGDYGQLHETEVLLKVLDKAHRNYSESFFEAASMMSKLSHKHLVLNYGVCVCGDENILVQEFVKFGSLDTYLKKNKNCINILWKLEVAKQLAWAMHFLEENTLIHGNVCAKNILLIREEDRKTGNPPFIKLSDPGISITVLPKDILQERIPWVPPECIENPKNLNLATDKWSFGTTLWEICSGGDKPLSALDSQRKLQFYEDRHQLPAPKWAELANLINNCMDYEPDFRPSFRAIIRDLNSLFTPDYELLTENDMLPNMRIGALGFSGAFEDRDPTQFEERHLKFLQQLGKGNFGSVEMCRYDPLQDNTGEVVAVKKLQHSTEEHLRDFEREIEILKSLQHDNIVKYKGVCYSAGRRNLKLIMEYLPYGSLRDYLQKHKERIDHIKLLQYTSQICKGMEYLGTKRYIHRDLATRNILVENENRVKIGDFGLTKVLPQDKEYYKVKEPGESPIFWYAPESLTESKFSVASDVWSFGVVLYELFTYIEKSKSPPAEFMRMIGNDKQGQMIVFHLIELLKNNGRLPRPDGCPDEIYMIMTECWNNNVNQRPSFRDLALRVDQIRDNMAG

Row | SMILES | IC50 (JAK2) | IC50 (JAK1)
1 | C[C@@H](O)c1nc2cnc3[nH]ccc3c2n1C1CCN(C(=O)NCC(F)(F)F)C1 (stereo in doubt) [LXS20, (R)-3-(2-((R)-1-Hydroxyethyl)imidazo[4,5-d]pyrrolo[2,3-b]pyridin-1(6H)-yl)-N-(2,2,2-trifluoroethyl)pyrrolidine-1-carboxamide] | 100 to 1000 nM | 100 to 1000 nM
2 | CCCS(=O)(=O)N1CCC(n2c([C@@H](C)O)nc3cnc4[nH]ccc4c32)C1 (stereo in doubt) [LXS21, (R)-1-(1-((R)-1-(Propylsulfonyl)pyrrolidin-3-yl)-1,6-dihydroimidazo[4,5-d]pyrrolo[2,3-b]pyridin-2-yl)ethanol] | 100 to 1000 nM | 100 to 1000 nM
3 | N#C[C@H]1CC[C@H](n2c(-c3ccc(CO)o3)nc3cnc4[nH]ccc4c32)CC1 (stereo in doubt) [LXS22, trans-4-(2-(5-(hydroxymethyl)furan-2-yl)imidazo[4,5-d]pyrrolo[2,3-b]pyridin-1(6H)-yl)cyclohexanecarbonitrile] | 10 to 100 nM | 10 to 100 nM
4 | O=C(NCC(F)(F)F)N1CCC(n2c(-c3ccc(CO)o3)nc3cnc4[nH]ccc4c32)C1 (stereo in doubt) [LXS23, (R)-3-(2-(5-(hydroxymethyl)furan-2-yl)imidazo[4,5-d]pyrrolo[2,3-b]pyridin-1(6H)-yl)-N-(2,2,2-trifluoroethyl)pyrrolidine-1-carboxamide] | 100 to 1000 nM | 100 to 1000 nM
5 | O=C(NCC(F)(F)F)N1CCC(n2c(-c3ncc[nH]3)nc3cnc4[nH]ccc4c32)C1 (stereo in doubt) [LXS24, (R)-3-(2-(1H-imidazol-2-yl)imidazo[4,5-d]pyrrolo[2,3-b]pyridin-1(6H)-yl)-N-(2,2,2-trifluoroethyl)pyrrolidine-1-carboxamide] | 100 to 1000 nM | 100 to 1000 nM
6 | C=CC(=O)N1CCC(n2c(-c3ncc[nH]3)nc3cnc4[nH]ccc4c32)C1 (stereo in doubt) [LXS25, (R)-1-(3-(2-(1H-imidazol-2-yl)imidazo[4,5-d]pyrrolo[2,3-b]pyridin-1(6H)-yl)pyrrolidin-1-yl)prop-2-en-1-one] | 100 to 1000 nM | 100 to 1000 nM
7 | Cc1ncc(-c2nc3cnc4[nH]ccc4c3n2C2CCC(C#N)CC2)s1 (stereo in doubt) [LXS26, trans-4-(2-(2-Methylthiazol-5-yl)imidazo[4,5-d]pyrrolo[2,3-b]pyridin-1(6H)-yl)cyclohexanecarbonitrile] | 10 to 100 nM | 10 to 100 nM
8 | N#C[C@H]1CC[C@H](n2c(-c3cnc(N)s3)nc3cnc4[nH]ccc4c32)CC1 (stereo in doubt) [LXS27, trans-4-(2-(2-Aminothiazol-5-yl)imidazo[4,5-d]pyrrolo[2,3-b]pyridin-1(6H)-yl)cyclohexanecarbonitrile] | 10 to 100 nM | 10 to 100 nM
9 | Cc1ccc(-c2nc3cnc4[nH]ccc4c3n2C2CCC(C#N)CC2)s1 (stereo in doubt) [LXS28, trans-4-(2-(2-Methylthiophen-5-yl)imidazo[4,5-d]pyrrolo[2,3-b]pyridin-1(6H)-yl)cyclohexanecarbonitrile] | 10 to 100 nM | 10 to 100 nM
10 | Cc1ccc(-c2nc3cnc4[nH]ccc4c3n2C2CCC(C#N)CC2)o1 (stereo in doubt) [LXS29, trans-4-(2-(2-Methylfuran-5-yl)imidazo[4,5-d]pyrrolo[2,3-b]pyridin-1(6H)-yl)cyclohexanecarbonitrile] | 10 to 100 nM | 10 to 100 nM
11 | N#C[C@H]1CC[C@H](n2c(-c3cccc(O)c3)nc3cnc4[nH]ccc4c32)CC1 (stereo in doubt) [LXS35, trans-4-(2-(3-Hydroxyphenyl)imidazo[4,5-d]pyrrolo[2,3-b]pyridin-1(6H)-yl)cyclohexanecarbonitrile] | < 10 nM | 10 to 100 nM
12 | N#C[C@H]1CC[C@H](n2c(-c3ccc(O)cc3O)nc3cnc4[nH]ccc4c32)CC1 (stereo in doubt) [LXS36, trans-4-(2-(2,4-Dihydroxyphenyl)imidazo[4,5-d]pyrrolo[2,3-b]pyridin-1(6H)-yl)cyclohexanecarbonitrile] | 10 to 100 nM | 10 to 100 nM
13 | N#C[C@H]1CC[C@H](n2c(-c3ccc(C(F)(F)F)cc3)nc3cnc4[nH]ccc4c32)CC1 (stereo in doubt) [LXS37, trans-4-(2-(4-(Trifluoromethyl)phenyl)imidazo[4,5-d]pyrrolo[2,3-b]pyridin-1(6H)-yl)cyclohexanecarbonitrile] | 100 to 1000 nM | 100 to 1000 nM
14 | N#C[C@H]1CC[C@H](n2c(-c3ccccc3O)nc3cnc4[nH]ccc4c32)CC1 (stereo in doubt) [LXS38, trans-4-(2-(2-Hydroxyphenyl)imidazo[4,5-d]pyrrolo[2,3-b]pyridin-1(6H)-yl)cyclohexanecarbonitrile] | 10 to 100 nM | 10 to 100 nM
15 | N#C[C@H]1CC[C@H](n2c(-c3ccc(O)cc3F)nc3cnc4[nH]ccc4c32)CC1 (stereo in doubt) [LXS39, trans-4-(2-(2-Fluoro-4-hydroxyphenyl)imidazo[4,5-d]pyrrolo[2,3-b]pyridin-1(6H)-yl)cyclohexanecarbonitrile] | 100 to 1000 nM | 10 to 100 nM
16 | N#C[C@H]1CC[C@H](n2c(-c3ccccc3F)nc3cnc4[nH]ccc4c32)CC1 (stereo in doubt) [LXS40, trans-4-(2-(2-Fluorophenyl)imidazo[4,5-d]pyrrolo[2,3-b]pyridin-1(6H)-yl)cyclohexanecarbonitrile] | 10 to 100 nM | 10 to 100 nM
17 | COc1ccc(-c2nc3cnc4[nH]ccc4c3n2C2CCC(C#N)CC2)c(O)c1 (stereo in doubt) [LXS41, trans-4-(2-(2-Hydroxy-4-methoxyphenyl)imidazo[4,5-d]pyrrolo[2,3-b]pyridin-1(6H)-yl)cyclohexanecarbonitrile] | 100 to 1000 nM | 100 to 1000 nM
18 | CSc1ccc(-c2nc3cnc4[nH]ccc4c3n2C2CCC(C#N)CC2)cc1 (stereo in doubt) [LXS42, trans-4-(2-(4-(Methylthio)phenyl)imidazo[4,5-d]pyrrolo[2,3-b]pyridin-1(6H)-yl)cyclohexanecarbonitrile] | 100 to 1000 nM | 100 to 1000 nM
19 | N#C[C@H]1CC[C@H](n2c(-c3ccc(F)cc3)nc3cnc4[nH]ccc4c32)CC1 (stereo in doubt) [LXS43, trans-4-(2-(4-Fluorophenyl)imidazo[4,5-d]pyrrolo[2,3-b]pyridin-1(6H)-yl)cyclohexanecarbonitrile] | 100 to 1000 nM | 10 to 100 nM
20 | CS(=O)(=O)c1ccc(C2Nc3cnc4[nH]ccc4c3N2C2CCC(C#N)CC2)cc1 (stereo in doubt) [LXS44, trans-4-(2-(4-(Methylsulfonyl)phenyl)-2,3-dihydroimidazo[4,5-d]pyrrolo[2,3-b]pyridin-1(6H)-yl)cyclohexanecarbonitrile] | 10 to 100 nM | 10 to 100 nM
21 | CCCS(=O)(=O)N1CC(CC#N)(n2cc(-n3c(-c4ccc(CO)o4)nc4cnc5[nH]ccc5c43)cn2)C1 [LXS14, 2-(1-(propylsulfonyl)-3-(4-(2-(5-(hydroxymethyl)furan-2-yl)imidazo[4,5-d]pyrrolo[2,3-b]pyridin-1(6H)-yl)-1H-pyrazol-1-yl)azetidin-3-yl)acetonitrile] |  | 100 to 1000 nM
22 | Cc1ccc(-c2nc3cnc4[nH]ccc4c3n2-c2cnn(CCC#N)c2)s1 [LXS84, 3-(4-(2-(5-Methylthiophen-2-yl)imidazo[4,5-d]pyrrolo[2,3-b]pyridin-1(6H)-yl)-1H-pyrazol-1-yl)propanenitrile] |  | 10 to 100 nM
